Laboratory results reported in patent publication US20210221822A1, “TRICYCLIC DERIVATIVES INHIBITOR, PREPARATION METHOD, AND APPLICATIONS THEREOF” (Jiangsu Hansoh Pharmaceutical Group Co., Ltd., priority 2018, published 2021).

Key:
[1] = test system: PI3Kα mutant cancer cells HCC1954 (H1047R); experiment: Cell Titer-Glo proliferation inhibition, HCC1954; assay type: cell-based; conditions: Homo sapiens, 48 to 96 hours
Method: (§1) Experimental method: The proliferation inhibitory effect of the compounds of the examples on PI3Kα mutant cancer cell lines HCC1954, HGC-27 and MKN1 was determined by Cell Titer-Glo method. The cell lines were cultured in RPMI 1640 medium (Gibco #22400089) containing 10% FBS (Gibco #10091148) and 1% P/S (Hyclone #SV30010) at 37° C. and 5% CO2. Before the experiment, the cells were collected and counted, and then the cell density was adjusted. The cells were inoculated in a white 96-well plate (Corning #3610) at a density of 1000 to 10000 cells/well, and incubated in an incubator at 37° C., 5% CO2 overnight. The compound solution of different concentrations was added, and corresponding vehicle control was set at the same time. The cell plate was further incubated in an incubator at 37° C., 5% CO2 for 48 to 96 hours. The cell plate and its content were equilibrated to room temperature. 20 to 100 μL of Cell Titer-Glo solution (Promega #G7573) was added to each well, and the plate was shaked well and incubated at room temperature in the dark for 5 to 30 minutes. The chemiluminescence value was measured by the BioTek SynergyH1 microplate reader.
(§2) The percentage inhibition data of the well treated by the compounds of the examples was calculated through the vehicle control well on the plate {% inhibition rate=100−(test compound value/vehicle control value)×100}. The IC50 value was calculated by fitting the data of different concentrations and corresponding percentage inhibition rates to a four-parameter nonlinear logic formula with GraphPad prism.

[2] = test system: PI3Kα mutant cancer cells HGC-27 (E542K); experiment: Cell Titer-Glo proliferation inhibition, HGC-27; assay type: cell-based; conditions: Homo sapiens, 48 to 96 hours
Method: as §1, §2

[3] = Pharmacokinetic (PK) assay in mice; assay type: in vivo; conditions: male, Balb/c, mouse, plasma, po, single intragastric 5 mg/kg
Summary of the method: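 Male Balb/c mice received a single intragastric dose of 5 mg/10 ml/kg in 0.5% CMC-Na. Orbital blood was taken at 0.5, 1, 2, 4, 6, 8 and 24 h into K2-EDTA; plasma was acetonitrile-precipitated and analyzed by LC-MS/MS, and PK parameters were calculated.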

IC50 [1]: 0.07 µM
IC50 [2]: 0.111 µM
AUC(0-t) ([3]; read-out: Area under curve AUC0-t): 1320 ng·h/mL
AUC(0-inf) ([3]; read-out: Area under curve AUC0-∞): 1340 ng·h/mL
half-life ([3]; read-out: Half-life t1/2(h) (converted)): 1.6 h
MRT ([3]; read-out: Mean residence time MRT): 1.8 h
Tmax ([3]; read-out: Peak time tmax): 0.5 h
Cmax ([3]; read-out: Plasma concentration Cmax): 641 ng/mL
Structure (SMILES): C[C@H](Nc1ccc2c(c1)OCCn1cc(N3C(=O)COC[C@H]3C(F)F)nc1-2)C(N)=O [Example 68, (S)-2-((2-((S)-3-(difluoromethyl)-5-oxomorpholino)-5,6-dihydrobenzo[f]imidazo[1,2-d][1,4]oxazepin-9-yl)amino)propanamide]
